Test results taken from patent US20100247444A1, “COMPOUND, […], NUCLEAR […] RESONANCE […] METHOD, NUCLEAR […] RESONANCE IMAGING METHOD, MASS SP[…] AND MASS SP[…] METHOD” (KYOTO UNIVERSITY, priority 2007, published 2010).

Conditions: Meth-A cancer bearing BALB/c mouse, 100 μl of 2 mg/ml in PBS via tail vein, organs collected after 1 hour
Method: (i) Preparation of a cancer bearing mouse Meth-A cells cultured in abdominal cavity of a BALB/c mouse were harvested by administrating 50 ml saline to the mouse. The cells were collected by centrifugation and resuspended in PBS (50 ml). The cells were counted and prepared at 2.0×10^7/ml. 100 μl of the solution containing the cells was subcutaneously injected to a left foot of another BALE/c mouse. […] After 1 hour, the mouse was dissected and the necessary organs (blood (200 μl), liver, kidney, cancer) were collected into microtubes. 1× Lysis buffer (500 μl) was added to each of the tubes and the organs were mashed by using beads. The microtubes were centrifuged (14,000 rpm, 30 min) for the debris to be precipitated and the supernatants were collected and subjected to multiple resonance measurement utilizing magnetic coherence transfer between three elements of ^1H—^13C—^15N.

[13CH3][15N+]([13CH3])([13CH3])CCO [^13C3—^15N-choline chloride]
signals derived from methyl groups of cholines (triple resonance NMR, 3.0 ppm) in cancer (cancer tissue lysate supernatant): detected
signals derived from methyl groups of cholines (triple resonance NMR, 3.0 ppm) in kidney (kidney lysate supernatant): detected
